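All cell lines were grown in 96-well plates and treated with compound for 48 hours. At the TGI there is no net growth.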
Tests used:
Assay in all cases: NCI-60 cell line screen, 48 h
[1] = tested on: CCRF-CEM leukemia
[2] = tested on: MALME-3M melanoma
[3] = tested on: SK-OV-3 ovarian
[4] = tested on: UO-31 renal
[5] = tested on: MCF7 breast
[6] = tested on: 786-0 renal
[7] = tested on: MDA-MB-231 breast
[8] = tested on: SR leukemia
[9] = tested on: MOLT-4 leukemia
[10] = tested on: T-47D breast
[11] = tested on: SF-295 CNS
[12] = tested on: TK-10 renal
[13] = tested on: NCI-H23 lung
[14] = tested on: IGROV1 ovarian
[15] = tested on: SN12C renal
[16] = tested on: KM12 colon
[17] = tested on: OVCAR-5 ovarian
[18] = tested on: SK-MEL-5 melanoma
[19] = tested on: SNB-75 CNS
[20] = tested on: NCI-H460 lung
[21] = tested on: A549 NSCLC
[22] = tested on: HOP-62 NSCLC
[23] = tested on: UACC-257 melanoma
[24] = tested on: A498 renal
[25] = tested on: NCI/ADR-RES ovarian
[26] = tested on: ACHN renal
[27] = tested on: PC-3 prostate
[28] = tested on: UACC-62 melanoma
[29] = tested on: M14 melanoma
[30] = tested on: EKVX NSCLC
[31] = tested on: HS 578T breast
[32] = tested on: COLO 205 colon
[33] = tested on: NCI-H522 lung
[34] = tested on: HCT-15 colon
[35] = tested on: RXF 393 renal
[36] = tested on: LOX IMVI melanoma
[37] = tested on: OVCAR-4 ovarian
[38] = tested on: DU-145 prostate
[39] = tested on: OVCAR-8 ovarian
[40] = tested on: SK-MEL-2 melanoma
[41] = tested on: SNB-19 CNS
[42] = tested on: HCT-116 colon
[43] = tested on: SF-539 CNS
[44] = tested on: MDA-N
[45] = tested on: HT29 colon
[46] = tested on: SF-268 CNS
[47] = tested on: CAKI-1 renal
[48] = tested on: K-562 leukemia
[49] = tested on: HCC-2998 colon
[50] = tested on: OVCAR-3 ovarian
[51] = tested on: BT-549 breast

Measured: TGI

COC(=O)c1cc(-c2c[nH]cc2C(=O)OCc2ccccc2)cn1S(=O)(=O)c1ccc(C)cc1
> 100 µM: all assays above
